Results from patent US5750754A, “Heterocyclic compounds” (Zeneca Limited, priority 1993, dated 1998).
Structures can show the parent of a compound that is named as a salt. Where two headings read alike, the source gives them in different places.

Legend:
[1] = molecular target: T1, human, citrated, platelet-rich plasma (Homo sapiens, UniProt P05106+P08514); experiment: Test (a): inhibition of ADP stimulated platelet aggregation (Born); type: cell-based; details: ADP induced aggregation of human platelet-rich plasma
T1 construct: aggregating human, citrated, platelet-rich plasma; endogenous in cells; host or cells: human platelets in citrated platelet-rich plasma
T1 sequence (P08514 32-887 limits assumed): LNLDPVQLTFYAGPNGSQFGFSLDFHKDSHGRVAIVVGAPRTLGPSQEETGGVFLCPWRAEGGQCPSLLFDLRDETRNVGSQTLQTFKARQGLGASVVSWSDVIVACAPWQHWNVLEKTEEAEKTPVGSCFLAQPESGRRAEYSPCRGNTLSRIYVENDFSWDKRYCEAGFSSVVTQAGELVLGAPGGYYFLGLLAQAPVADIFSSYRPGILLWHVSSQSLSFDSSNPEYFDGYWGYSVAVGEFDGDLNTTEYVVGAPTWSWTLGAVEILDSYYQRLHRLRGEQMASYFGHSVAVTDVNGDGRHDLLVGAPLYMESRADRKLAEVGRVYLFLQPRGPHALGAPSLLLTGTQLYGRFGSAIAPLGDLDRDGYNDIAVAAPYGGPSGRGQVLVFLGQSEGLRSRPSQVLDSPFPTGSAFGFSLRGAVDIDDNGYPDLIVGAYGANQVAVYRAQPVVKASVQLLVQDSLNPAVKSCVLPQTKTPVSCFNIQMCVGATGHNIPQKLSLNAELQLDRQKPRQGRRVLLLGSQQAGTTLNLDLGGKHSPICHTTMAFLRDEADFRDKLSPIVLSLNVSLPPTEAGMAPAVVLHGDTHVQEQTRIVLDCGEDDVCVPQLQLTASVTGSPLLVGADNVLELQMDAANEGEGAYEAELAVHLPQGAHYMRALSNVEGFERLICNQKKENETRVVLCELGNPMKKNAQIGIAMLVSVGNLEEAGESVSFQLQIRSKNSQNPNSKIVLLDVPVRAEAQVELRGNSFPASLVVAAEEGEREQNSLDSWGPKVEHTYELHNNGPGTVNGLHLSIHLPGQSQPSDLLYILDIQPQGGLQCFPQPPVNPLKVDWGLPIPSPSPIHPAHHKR
T1 sequence (P08514 891-1039 limits assumed): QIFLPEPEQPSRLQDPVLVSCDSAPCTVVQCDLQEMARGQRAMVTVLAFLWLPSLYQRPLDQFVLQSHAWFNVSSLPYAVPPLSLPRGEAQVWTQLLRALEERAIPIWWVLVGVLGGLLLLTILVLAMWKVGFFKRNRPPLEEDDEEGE
T1 sequence (P05106 27-788): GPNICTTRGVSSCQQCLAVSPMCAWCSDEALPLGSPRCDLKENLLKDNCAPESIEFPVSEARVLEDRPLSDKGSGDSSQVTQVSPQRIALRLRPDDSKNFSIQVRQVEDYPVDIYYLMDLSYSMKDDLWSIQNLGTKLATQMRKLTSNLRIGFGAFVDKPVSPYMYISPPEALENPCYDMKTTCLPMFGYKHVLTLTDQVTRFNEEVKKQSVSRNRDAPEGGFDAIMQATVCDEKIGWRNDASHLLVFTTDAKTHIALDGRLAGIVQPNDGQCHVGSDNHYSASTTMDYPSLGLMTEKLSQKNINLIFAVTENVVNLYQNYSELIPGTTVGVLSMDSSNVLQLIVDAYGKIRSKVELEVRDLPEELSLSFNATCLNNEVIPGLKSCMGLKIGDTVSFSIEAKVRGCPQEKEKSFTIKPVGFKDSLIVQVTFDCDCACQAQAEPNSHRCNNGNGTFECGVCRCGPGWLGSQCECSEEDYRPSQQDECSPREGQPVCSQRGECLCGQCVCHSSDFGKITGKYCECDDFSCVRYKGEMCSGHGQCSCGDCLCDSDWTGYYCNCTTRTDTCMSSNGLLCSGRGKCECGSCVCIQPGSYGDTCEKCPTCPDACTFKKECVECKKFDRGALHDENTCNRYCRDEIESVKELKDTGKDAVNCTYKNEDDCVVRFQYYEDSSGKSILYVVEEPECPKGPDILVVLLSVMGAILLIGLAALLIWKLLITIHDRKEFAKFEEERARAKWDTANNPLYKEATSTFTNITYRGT
Source text: (i) aggregating human, citrated, platelet-rich plasma by addition of adenosine diphosphate so as to generate a dose-response curve;
(ii) generating a dose-response curve for ADP stimulated platelet aggregation in the presence of increasing amounts of a test compound (generally in the range 10-^5 M to 10-^10 M); and
(iii) calculating a pA2 value indicating potency of platelet aggregation inhibition for the test compound, averaged over several concentrations, from the calculated 50% response value for ADP aggregation in the presence and absence of the test compound.

[2] = molecular target: T2, purified human platelet fibrinogen receptor (GPIIb/IIIa) (Homo sapiens, UniProt P05106+P08514); experiment: Test (b): GPIIb/IIIa ELISA, inhibition of biotinylated fibrinogen binding; details: purified human platelet GPIIb/IIIa, ELISA
T2 construct: is isolated from human platelet lysates; from tissue
T2 sequence (P08514 32-887 limits assumed): as the sequence (P08514 32-887 limits assumed) above
T2 sequence (P08514 891-1039 limits assumed): as the sequence (P08514 891-1039 limits assumed) above
T2 sequence (P05106 27-788): as the sequence (P05106 27-788) above
Description: (i) Preparation of human platelet lysates.
Platelet rich plasma (PRP) is harvested by centrifugation (1000 rpm, 15 mins) of whole blood anticoaoulated with acid citrate dextrose (trisodium citrate 85 mM, citric acid 70 mM, d-glucose 110 mM) 1 part to 6 parts blood. Prostacyclin (PGI2, 1 μM) is added to the PRP before centrifugation (2400 pm, 15 mins) and the resulting pellet is resuspended in modified Tyrodes' solution (NaCl 130 mM, KCl 26 mM, NaHCO3 12 mM, NaH2 PO4 0.5 mM, MgCl2 1 mM, CaCl2 20 mM, Glucose 12 mM, HEPES 5 mM) containing bovine serum albumin 3.5 g/L, PGI2 1 μM and hirudin 0.5 U/ml. The platelet suspension is centrifuged (2400 rpm, 15 mins) and the resultant pellet resuspended in 500 μl of lysis buffer (octyl glucoside 50 mM, HEPES 10 mM, NaCl 150 mM, CaCl2 1 mM, MgCl2 1 mM, PMSF 1 mM, NEM 10 mM, leupeptin 0.1 mM), agitated at 4° C. for 15 minutes then centrifuged at 24000 rpm, 15 mins. The supernatant is stored at 4° C. and the pellet re-suspended in 500 μl of lysis buffer. The centrifugation process is repeated a further 3 tlimes, the pooled supernatants being stored at -70° C.
(ii) Receptor purification.
GP Ilb/Ila is isolated from human platelet lysates using a 2 ml peptide (KYGRGDS) coupled CNBr activated Sepharose affinity column. A 1.5 ml volume of platelet lysate is placed on the column and allowed to stand overnight at 4° C. Buffer (30 mls, octyl gluicoside 25 mM, HEPES 10 mM, NaCl 150 mM, CaCl2 1 mM, MgCl2 1 mM, PMSF 1 mM, NEM 10 mM, leupeptin 0.1 mM) is passed through the column and 2 ml fractions are collected throughout. GPIIb/IIIa is eluted with 12 mls of buffer containing HHLGGAKQAGDV (2 mg/ml, pH 7.5), the column is washed using 4 mls buffer and the remaining GPIIb/IIIa eluted using 12 mls buffer containing GRGDSPG (1 mg/ml pH 7.5). The column is finally washed using 20 mls of buffer and can be used for up to three such preparations. Fractions containing FGPIIb/IIIa are identified using gel electrophoresis and immunoblotting, pooled and stored at -70° C.
96 well microtitre plates are coated with 100 μl purified human platelet fibrinogen receptor (GPIIb/IIIa) diluted in coating buffer (Tris-HCl 20 mM, NaCl 150 mM, CaCl2 1 mM, pH 7.4) and left overnight at 4° C. The plates are washed using washing buffer (Tris-HCl 50 mM, NaCl 100 mM, CaCl2 2 mM, pH 7.4) and non-specific binding, blocked by the addition of 200 μl 2% BSA (2 hours, 30° C.). The plates are washed prior to incubation (2 hours, 30° C.) with 100 μl biotinylated fibrinogen ([…]) containing either vehicle or test compound. The plates are washed, incubated with streptavidin (5 μg/ml, 1 hour, ambient temperature), then washed again before the addition of 100 μl biotinylated horse radish peroxidase (0.1 μg/ml, 1 hour, ambient temperature). The plates are then washed and equal volumes of peroxidase substrate (3, 5, tetramethyl benzidine 0.4 g/l) and H2 O2 (0.02%) are mixed together immediately before addition of 150 μl to each well. Colour is allowed to develop for 10-15 mins before optical densities are read at 650 nm.
The concentration of compound required to cause 50% inhibition of biotinylated fibrinogen binding, is calculated and expressed as a pIC50 (-log(IC50)).

[3] = Test (a): pA2 value indicating potency of platelet aggregation inhibition
[4] = Test (b): pIC50 (-log(IC50)), 50% inhibition of biotinylated fibrinogen binding to GPIIb/IIIa
[5] = read-out: Test (a): pA2 value indicating potency of platelet aggregation inhibition (converted)
[6] = read-out: Test (b): pIC50 (-log(IC50)), 50% inhibition of biotinylated fibrinogen binding to GPIIb/IIIa (converted)

Kb [1, 5] [nM] | IC50 [2, 6] [nM] | Test (b): pIC50 (-log(IC50)), 50% inhibition of biotinylated fibrinogen binding to GPIIb/IIIa [2] | SMILES | Kb [1, 3] [nM] | IC50 [2, 4] [nM]
 |  |  | COC(=O)COc1ccc(C(=O)C(C)N2CCN(c3ccncc3)CC2)cc1 (racemic) [Example 16, (RS) Methyl 4-[2-[4-(4-pyridyl)piperazin-1-yl]-2-methylacetyl]phenoxyacetate] | 158 | 200
 |  |  | CC(C(=O)c1ccc(OCC(=O)O)cc1)N1CCN(c2ccncc2)CC1 (racemic) [Example 17, RS 4-[2-[4-(4-Pyridyl)piperazin-1-yl]2-methylacetyl]phenoxyacetic acid sodium chloride adduct dihydrate] | 39.8 | 20
2000 | 251 |  | CCCCS(=O)(=O)NC(Cc1ccc(C(=O)CN2CCN(c3ccncc3)CC2)cc1)C(=O)OC (racemic) [Example 66, Methyl 2-RS-(n-butylsulphonylamino)-3-[4-[2-[4-(4-pyridyl)piperazin-1-yl]acetyl]phenyl]propionate] |  | 
2.51 | 3.16 |  | CCCCS(=O)(=O)NC(Cc1ccc(C(=O)CN2CCN(c3ccncc3)CC2)cc1)C(=O)O (racemic) [Example 67, 2-RS-(n-Butylsulphonylamino)-3-[4-[2-[4-(4-pyridyl)piperazine-1-yl]acetyl]phenyl]propionic acid] |  | 
316 | 12.6 |  | CCCCS(=O)(=O)NC(Cc1ccc(CN2CCN(c3ccncc3)CC2)cc1)C(=O)O (racemic) [Example 68, 2-RS-(n-Butylsulphonylamino)-3-[4-(4-pyridyl)piperazin-1-ylmethylene]phenylpropionic acid] |  | 
6310 | > 100000 |  | CCCCS(=O)(=O)NC(CC1CCN(C(=O)CN2CCN(c3ccncc3)CC2)CC1)C(=O)OCC (racemic) [Example 110, Ethyl 2RS-(n-butylsulphonylamino)-3-[1-[2-[4-(4-pyridyl)piperazin-1yl]-acetyl]piperidin-4-yl]propanoate] |  | 
5010 | 6310 |  | CCCCS(=O)(=O)NC(CC1CCN(C(=O)CN2CCN(c3ccncc3)CC2)CC1)C(=O)O (racemic) [Example 111] |  | 
1580 | 79400 |  | COC(=O)COc1ccc(C(=O)C(C)CN2CCN(c3ccncc3)CC2)cc1 (racemic) [Example 177, RS Methyl 4-[3-[4-(4-pyridyl)piperazin-1-yl]-2-methylpropanoyl]-phenoxyacetate] |  | 
79.4 | 1.26 |  | C=CC(COc1ccc(N2CCN(c3ccncc3)CC2)cc1)CC(=O)O (racemic) [Example 204, RS-4-[4-[4-(4-Pyridyl)piperazin-1-yl]phenoxy]-3-vinylbutyric acid, sodium salt] |  | 
200 | 501 |  | COC(=O)C(N)CCOc1ccc(N2CCN(c3ccncc3)CC2)cc1 (racemic) [Example 213, RS Methyl 2-amino-4-[4-[4-(4-pyridyl)piperazin-1-yl]phenoxy]butyrate] |  | 
251 | 251 |  | O=C(O)CO[C@@H]1CCN(C(=O)CN2CCN(c3ccncc3)CC2)C[C@H]1OCC(=O)O (relative stereo) [Example 105] |  | 
50.1 to 79.4 | 25.1 | 7.6 | O=C(O)COc1ccc(C(=O)CN2CCN(c3ccncc3)CC2)cc1 [Example 2] |  | 
501 | 251 |  | COC(=O)COc1ccc(C(=O)CN2CCN(c3ccncc3)CC2)cc1OCC(=O)OC [Example 3] |  | 
1.26 | 0.794 |  | O=C(O)COc1ccc(C(=O)CN2CCN(c3ccncc3)CC2)cc1OCC(=O)O [Example 4, 2,2'-[4-[2-[4-(4-Pyridyl)piperazin-1-yl]acetyl]phenylene-1,2-dioxy]diaceticacid] |  | 
1000 | 1000 |  | COC(=O)COc1ccc(C(=O)CN2CCN(c3ccncc3)CC2)cc1OC [Example 5, Methyl 4-[2-[4-(4-pyridyl)piperazin-1-yl]acetyl]-2-methoxyphenoxyacetate] |  | 
63.1 | 25.1 |  | COc1cc(C(=O)CN2CCN(c3ccncc3)CC2)ccc1OCC(=O)O [Example 6, 4-[2-[4-(4-Pyridyl)piperazin-1-yl]acetyl]-2-methoxyphenoxyacetic acid] |  | 
501 | 3980 to 6310 |  | COC(=O)COc1ccc(C(=O)CCN2CCN(c3ccncc3)CC2)cc1 [Example 7, Methyl 4-[3-[4-(4-pyridyl)piperazin-1-yl]propanoyl]phenoxyacetate] |  | 
316 | 79.4 |  | O=C(O)COc1ccc(C(=O)CCN2CCN(c3ccncc3)CC2)cc1 [Example 8, 4-[3-[4-(4-Pyridyl)piperazin-1-yl]propanoyl]phenoxyacetic acid] |  | 
12600 | 50100 |  | COC(=O)CSc1ccc(C(=O)CN2CCN(c3ccncc3)CC2)cc1 [Example 9, Methyl 4-[2-[4-(4-pyridyl)piperazin-1-yl]acetyl]phenylthioacetate] |  | 
2000 | 1000 |  | O=C(O)CSc1ccc(C(=O)CN2CCN(c3ccncc3)CC2)cc1 [Example 10] |  | 
2000 | 39800 |  | COC(=O)CCc1ccc(C(=O)CN2CCN(c3ccncc3)CC2)cc1 [Example 11, Methyl 3-[4-[2-[4-(4-pyridyl)piperazin-1-yl]acetyl]phenyl]propionate] |  | 
501 | 63.1 |  | O=C(O)CCc1ccc(C(=O)CN2CCN(c3ccncc3)CC2)cc1 [Example 12, 3-[4-[2-[4-(4-Pyridyl)piperazin-1-yl]acetyl]phenyl]propionic acid] |  | 
5010 | 15800 to 39800 |  | COC(=O)Cc1ccc(C(=O)CN2CCN(c3ccncc3)CC2)cc1 [Example 13, Methyl 4-[2-[4-(4-pyridyl)piperazin-1-yl]acetyl]phenylacetate] |  | 
7940 | > 100000 |  | CCOC(=O)Cc1ccc(C(=O)CN2CCN(c3ccncc3)CC2)cc1 [Example 14, Ethyl 4-[2-[4-(4-pyridyl)piperazin-1-yl]acetyl]phenylacetate] |  | 
2510 | 1260 |  | O=C(O)Cc1ccc(C(=O)CN2CCN(c3ccncc3)CC2)cc1 [Example 15, 4-[2-[4-(4-Pyridyl)piperazin-1-yl]acetyl]phenylacetic acid, trifluoroacetate salt] |  | 
2510 | 2000 |  | Cc1ccc(S(=O)(=O)Nc2ccc(C(=O)CN3CCN(c4ccncc4)CC3)cc2)cc1 [Example 19, N-[4-[2-[4-(4-Pyridyl)piperazin-1-yl]acetyl]phenyl-4-methylphenyl]-sulphonamide] |  | 

SMILES | Kb [1, 5] [nM] | IC50 [2, 6] [nM] | Test (b): pIC50 (-log(IC50)), 50% inhibition of biotinylated fibrinogen binding to GPIIb/IIIa [2] | Kb [1, 3] [nM] | IC50 [2, 4] [nM]
COC(=O)C(CCOc1ccc(N2CCN(c3ccncc3)CC2)cc1)NC(=O)OC(C)(C)C (racemic) [Example 211, RS Methyl 2-t-butoxycarbonylamino-4-[4-[4-(4-pyridyl)piperazine-1-yl]phenoxy]butyrat] | 1580 | 158 |  |  | 
